Data on 34 compounds can be found in patent US20230140216A1, “COMBINATION THERAPY FOR TREATING MPS1” (GAIN THERAPEUTICS SA, priority 2020, published 2023).

In the assay the target is T1, Recombinant human α-L-iduronidase protein (Homo sapiens, UniProt P35475).
T1 construct: purchased R&D
T1 sequence (P35475 28-653): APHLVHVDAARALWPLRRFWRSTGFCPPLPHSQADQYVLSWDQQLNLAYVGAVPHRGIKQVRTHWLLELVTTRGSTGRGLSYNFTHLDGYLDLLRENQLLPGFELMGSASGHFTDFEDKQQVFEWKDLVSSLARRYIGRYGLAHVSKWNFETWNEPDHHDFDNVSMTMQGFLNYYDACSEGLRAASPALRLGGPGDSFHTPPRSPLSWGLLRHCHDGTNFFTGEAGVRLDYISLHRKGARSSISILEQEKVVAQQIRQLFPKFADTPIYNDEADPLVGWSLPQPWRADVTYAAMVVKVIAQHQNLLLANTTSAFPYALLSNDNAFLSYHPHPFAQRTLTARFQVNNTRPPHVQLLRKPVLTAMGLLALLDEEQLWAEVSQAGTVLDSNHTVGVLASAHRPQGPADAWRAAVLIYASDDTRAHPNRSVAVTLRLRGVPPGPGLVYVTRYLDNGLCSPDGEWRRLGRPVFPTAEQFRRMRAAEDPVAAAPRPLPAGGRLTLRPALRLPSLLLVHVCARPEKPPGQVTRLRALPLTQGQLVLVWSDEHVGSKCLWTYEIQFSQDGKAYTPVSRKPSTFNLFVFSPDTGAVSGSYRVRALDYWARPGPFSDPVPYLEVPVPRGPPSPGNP
The experiment in a line: Differential scanning fluorimetry (DSF) thermal stabilization.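 Also: Classes count stabilization of α-L-iduronidase despite the GALC label.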 The following applies: ΔTm class. Type of assay: binding. As for the experimental part:
The capacity of Compounds of the Disclosure to stabilize α-L-iduronidase was assessed by differential scanning fluorimetry technique. The thermal denaturation of purified human native enzyme was monitored in the presence of the extrinsic fluorescent probe SYPRO Orange (Sigma-Aldrich, St. Louis, MO). The tested compounds were dissolved in 100% DMSO and diluted into the protein buffer to achieve final concentrations of 1% DMSO.
Recombinant human α-L-iduronidase protein (purchased from R&D) 12.5 µL of 1.5 µM in 100 mM Hepes 20 mM MgCl2 pH 7 (protein final concentration 0.75 µM) with Sypro Orange 10X and 12.5 µl of the different compound solutions were dispensed into 96-well PCR-plates. The intensity of SYPRO Orange fluorescence after a systematic increase of temperature was monitored in the Roche LightCycler® 480 II device (Roche Diagnostics).
The capacity to stabilize α-L-iduronidase is denoted as follows: • ΔTm GALC > 1 is shown as A; • ΔTm GALC between 0.5 and 1 is shown as B; • ΔTm GALC between 0.1 and 0.5 is shown as C; and • ΔTm GALC less than 0.1 is shown as D.
Background: DSF heats the sample and reads unfolding from a dye or from intrinsic fluorescence.

Setting [1] is: commercially available Examples 8-37.

Turning to `Cc1ccc2nc(CN(CC(=O)N(C)c3ccccc3Cl)C3CC3)[nH]c(=O)c2c1` [Example 78, 2-(N-cyclopropyl-N-((3,4-dihydro-6-methyl-4-oxoquinazolin-2-yl)methyl)amino)-N-(2-chlorophenyl)-N-methylacetamide], for the setting “synthetized Examples 38-94”, the “DSF Activity range” value is on record as “D (ΔTm GALC less than 0.1 is shown as D)”. On to `CN(CC(=O)N(C)c1ccccc1Cl)Cc1nc2cc(F)ccc2c(=O)[nH]1` [Example 63], for which the “DSF Activity range” value (synthetized Examples 38-94) was “B (ΔTm GALC between 0.5 and 1 is shown as B)”. With `CCN(CC(=O)N(C)c1nc(C)cs1)Cc1nc2ccc(F)cc2c(=O)[nH]1` [Example 67, 2-(ethyl((6-fluoro-4-oxo-3,4-dihydroquinazolin-2-yl)methyl)amino)-N-methyl-N-(4-methylthiazol-2-yl)acetamide], the “DSF Activity range” value (synthetized Examples 38-94) is “B (ΔTm GALC between 0.5 and 1 is shown as B)”. For the compound `Cc1csc2c(=O)[nH]c(CN(C)CC(=O)N(C)c3cccc(F)c3)nc12` [Example 50], the “DSF Activity range” value (synthetized Examples 38-94) is “B (ΔTm GALC between 0.5 and 1 is shown as B)”. Regarding `Cc1csc(N(C)C(=O)CN(C)Cc2nc3cc(F)ccc3c(=O)[nH]2)n1` [Example 68], the “DSF Activity range” value (synthetized Examples 38-94) is “C (ΔTm GALC between 0.1 and 0.5 is shown as C)”. As for `Cc1ccc2nc(CN(C)CC(=O)N(C)c3ccccc3Cl)[nH]c(=O)c2c1` [Example 66], the “DSF Activity range” value (synthetized Examples 38-94) is “B (ΔTm GALC between 0.5 and 1 is shown as B)”. In the case of `Cc1cc2nc(CN(C)CC(=O)N3Cc4ccccc4C3)[nH]c(=O)c2s1` [Example 53], the “DSF Activity range” value (synthetized Examples 38-94) is “B (ΔTm GALC between 0.5 and 1 is shown as B)”. For the compound `Cc1cccc(-n2ncc3c(O)nc(CN(C)CC(=O)N(C)c4ccccc4Cl)nc32)c1` [Example 3, N-(2-chlorophenyl)-2-(((4-hydroxy-1-m-tolyl-1H-pyrazolo[3,4-d]pyrimidin-6-yl)methyl)(methyl)amino)-N-methylacetamide], the “DSF Activity range” value (synthetized Examples 1-7) was “C (ΔTm GALC between 0.1 and 0.5 is shown as C)”. Regarding `CN(CC(=O)N(C)c1ccccc1Cl)Cc1nc2c(cnn2C)c(=O)[nH]1` [Example 92], where the note is “synthetized Examples 38-94”, the “DSF Activity range” value is “B (ΔTm GALC between 0.5 and 1 is shown as B)”. In the case of `COCCN(CC(=O)Nc1ccc(C)cc1)Cc1nc2ccccc2c(=O)[nH]1` [Example 17, 2-((2-methoxyethyl)((4-oxo-3,4-dihydroquinazolin-2-yl)methyl)amino)-N-(p-tolyl)acetamide], under setting [1], the “DSF Activity range” value is “B (ΔTm GALC between 0.5 and 1 is shown as B)”. Regarding `COc1cccc(-n2ncc3c(O)nc(CN(C)CC(=O)N(C)c4ccccc4Cl)nc32)c1` [Example 6, N-(2-chlorophenyl)-2-(((4-hydroxy-1-(3-methoxyphenyl)-1H-pyrazolo[3,4-d]pyrimidin-6-yl)methyl)(methyl)amino)-N-methylacetamide], the “DSF Activity range” value (synthetized Examples 1-7) was “B (ΔTm GALC between 0.5 and 1 is shown as B)”.

As for `CCCN(CC(=O)N(C)c1ccccc1Cl)Cc1nc2ccc(C)cc2c(=O)[nH]1` [Example 80], the “DSF Activity range” value (synthetized Examples 38-94) was “B (ΔTm GALC between 0.5 and 1 is shown as B)”. The same measure, in the same setting: for `Cc1csc2c(=O)[nH]c(CN(CC(=O)N(C)c3ccccc3Cl)C3CC3)nc12` [Example 43] the value was “D (ΔTm GALC less than 0.1 is shown as D)”. Regarding `Cc1ccccc1-n1ncc2c(O)nc(CN(C)CC(=O)N(C)c3ccccc3Cl)nc21` [Example 2, N-(2-chlorophenyl)-2-(((4-hydroxy-1-o-tolyl-1H-pyrazolo[3,4-d]pyrimidin-6-yl)methyl)(methyl)amino)-N-methylacetamide], the “DSF Activity range” value (synthetized Examples 1-7) is “C (ΔTm GALC between 0.1 and 0.5 is shown as C)”. `CN(CC(=O)N1CCc2ccccc21)Cc1nc2ccc(F)cc2c(=O)[nH]1` [Example 57, 6-fluoro-2-(((2-(indolin-1-yl)-2-oxoethyl)(methyl)amino)methyl)quinazolin-4(3H)-one]: the “DSF Activity range” value (synthetized Examples 38-94) is “B (ΔTm GALC between 0.5 and 1 is shown as B)”.

As to `CN(CC(=O)N1CCCc2ccccc21)Cc1nc2ccccc2c(=O)[nH]1` [Example 29, 2-(((2-(3,4-dihydroquinolin-1(2H)-yl)-2-oxoethyl)(methyl)amino)methyl)quinazolin-4(3H)-one], under setting [1], the “DSF Activity range” value is “B (ΔTm GALC between 0.5 and 1 is shown as B)”. `Cc1ccc2c(=O)[nH]c(CN(C)CC(=O)N(C)c3ccccc3Cl)nc2c1` [Example 70, 2-(N-((3,4-dihydro-7-methyl-4-oxoquinazolin-2-yl)methyl)-N-methylamino)-N-(2-chlorophenyl)-N-methylacetamide]: the “DSF Activity range” value (synthetized Examples 38-94) is “B (ΔTm GALC between 0.5 and 1 is shown as B)”.

For the compound `CCN(CC(=O)N(C)c1ccccc1Cl)Cc1nc2c(C)csc2c(=O)[nH]1` [Example 42], the “DSF Activity range” value (synthetized Examples 38-94) is “C (ΔTm GALC between 0.1 and 0.5 is shown as C)”. `Cc1cc2nc(CN(C)CC(=O)N(C)c3ccc(Cl)c(Cl)c3)[nH]c(=O)c2s1` [Example 55, N-(3,4-dichlorophenyl)-N-methyl-2-(methyl((6-methyl-4-oxo-3,4-dihydrothieno[3,2-d]pyrimidin-2-yl)methyl)amino)acetamide]: the “DSF Activity range” value (synthetized Examples 38-94) is “C (ΔTm GALC between 0.1 and 0.5 is shown as C)”. `CN(CC(=O)Nc1ccccc1)Cc1nc2c(cnn2C)c(=O)[nH]1` [Example 33, 2-(methyl((1-methyl-4-oxo-4,5-dihydro-1H-pyrazolo[3,4-d]pyrimidin-6-yl)methyl)amino)-N-phenylacetamide]: the “DSF Activity range” value under setting [1] was “C (ΔTm GALC between 0.1 and 0.5 is shown as C)”. With `CCN(CC(=O)N(C)c1ccccc1Cl)Cc1nc2cc(C)sc2c(=O)[nH]1` [Example 46], the “DSF Activity range” value (synthetized Examples 38-94) is “B (ΔTm GALC between 0.5 and 1 is shown as B)”.

For the compound `Cc1ccc2c(=O)[nH]c(CN(C)CC(=O)N(C)c3cccc(F)c3)nc2c1` [Example 87, 2-(N-((3,4-dihydro-7-methyl-4-oxoquinazolin-2-yl)methyl)-N-methylamino)-N-(3-fluorophenyl)-N-methylacetamide], the “DSF Activity range” value (synthetized Examples 38-94) is “D (ΔTm GALC less than 0.1 is shown as D)”. `CCN(CC(=O)Nc1c(Cl)cccc1Cl)Cc1nc2ccccc2c(=O)[nH]1` [Example 16, N-(2,6-dichlorophenyl)-2-(ethyl((4-oxo-3,4-dihydroquinazolin-2-yl)methyl)amino)acetamide]: the “DSF Activity range” value under setting [1] is “B (ΔTm GALC between 0.5 and 1 is shown as B)”.

For the compound `Cc1ccc2nc(CN(C)CC(=O)N(C)c3cccc(F)c3)[nH]c(=O)c2c1` [Example 82], for the setting “synthetized Examples 38-94”, the “DSF Activity range” value is “B (ΔTm GALC between 0.5 and 1 is shown as B)”. Take `CCCN(CC(=O)N(C)c1ccccc1Cl)Cc1nc2cc(F)ccc2c(=O)[nH]1` [Example 76]: the “DSF Activity range” value (synthetized Examples 38-94) is given as “D (ΔTm GALC less than 0.1 is shown as D)”. Take `CCN(CC(=O)N(C)c1ccccc1Cl)Cc1nc2ccc(C)cc2c(=O)[nH]1` [Example 79]: the “DSF Activity range” value (synthetized Examples 38-94) was “C (ΔTm GALC between 0.1 and 0.5 is shown as C)”.

For the compound `Cc1cc2nc(CN(C)CC(=O)N(C)c3ccccc3Cl)[nH]c(=O)c2s1` [Example 45], the “DSF Activity range” value (synthetized Examples 38-94) is “B (ΔTm GALC between 0.5 and 1 is shown as B)”. As for `Cc1cc2nc(CN(C)CC(=O)N(C)c3cccc(F)c3)[nH]c(=O)c2s1` [Example 51], the “DSF Activity range” value (synthetized Examples 38-94) is “C (ΔTm GALC between 0.1 and 0.5 is shown as C)”. Regarding `CN(CC(=O)N(C)c1ccccc1)Cc1nc2ccccc2c(=O)[nH]1` [Example 27, N-methyl-2-(methyl((4-oxo-3,4-dihydroquinazolin-2-yl)methyl)amino)-N-phenylacetamide], the “DSF Activity range” value under setting [1] was “B (ΔTm GALC between 0.5 and 1 is shown as B)”. With `Cc1csc2c(=O)[nH]c(CN(C)CC(=O)N3Cc4ccccc4C3)nc12` [Example 38], the “DSF Activity range” value (synthetized Examples 38-94) was “B (ΔTm GALC between 0.5 and 1 is shown as B)”.

As to `Cc1ccc(-n2ncc3c(O)nc(CN(C)CC(=O)N(C)c4ccccc4Cl)nc32)cc1` [Example 4, N-(2-chlorophenyl)-2-(((4-hydroxy-1-p-tolyl-1H-pyrazolo[3,4-d]pyrimidin-6-yl)methyl)(methyl)amino)-N-methylacetamide], the “DSF Activity range” value (synthetized Examples 1-7) is “B (ΔTm GALC between 0.5 and 1 is shown as B)”. As for `CN(CC(=O)N(C)c1ccccc1Cl)Cc1nc2ccc(F)cc2c(=O)[nH]1` [Example 59], under “synthetized Examples 38-94”, the “DSF Activity range” value is “B (ΔTm GALC between 0.5 and 1 is shown as B)”. Still for that read-out and setting: for `CCN(CC(=O)N(C)c1ccccc1Cl)Cc1nc2cc(C)ccc2c(=O)[nH]1` [Example 84] the value was “C (ΔTm GALC between 0.1 and 0.5 is shown as C)”.

For the compound `CCN(CC(=O)Nc1cccc2c1N=S=N2)Cc1nc2ccccc2c(=O)[nH]1` [Example 25, N-(benzo[c][1,2,5]thiadiazol-4-yl)-2-(ethyl((4-oxo-3,4-dihydroquinazolin-2-yl)methyl)amino)acetamide], the “DSF Activity range” value under setting [1] was “B (ΔTm GALC between 0.5 and 1 is shown as B)”.
